Test results as given in US20060068457A1, “Substrates for tafi (a)” (priority 2002, published 2006).

Assays:
TAFIa = target: T1, TAFIa (Homo sapiens, UniProt Q96IY4); assay: Splitting of thiaarginine and thialysine substrates by TAFIa (DTNB chromogenic enzyme assay); type: biochemical; conditions: substrate final concentration 174 μM, TAFIa final concentration 17 μg/ml, RT, 10 min
T1 construct: purchased Enzyme Research Laboratory
T1 sequence (Q96IY4 115-423): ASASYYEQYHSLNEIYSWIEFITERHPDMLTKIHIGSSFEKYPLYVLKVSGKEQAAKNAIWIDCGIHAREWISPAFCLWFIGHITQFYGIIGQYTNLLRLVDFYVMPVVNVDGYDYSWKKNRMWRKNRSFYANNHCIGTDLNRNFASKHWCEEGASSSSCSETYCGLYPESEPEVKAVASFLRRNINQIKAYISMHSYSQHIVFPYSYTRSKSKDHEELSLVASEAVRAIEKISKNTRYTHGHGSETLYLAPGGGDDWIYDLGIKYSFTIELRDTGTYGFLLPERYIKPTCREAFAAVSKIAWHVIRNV
From the text: In a first step, the substrate is hydrolyzed by TAFIa in such a way that a thioamino acid (thiaarginine or thialysine) is released. These instable intermediates are rapidly decomposed into 2-mercaptoethylguanidine or […], respectively. These mercapto compounds react with Ellman's reagent (5,5′-dithio-bis-(2-nitrobenzoic acid)), thereby releasing the strongly yellow 3-carboxy-4-nitrothiophenol that can be measured using a spectrophotometer at 405-412 nm. The free thiol content measured is directly proportional to the quantity of substrate hydrolyzed by TAFIa and thereby allows a quantitative analysis of the enzyme activity.
Enzyme assay: The enzyme activity is measured at room temperature by using a 10 mM substrate stock solution in DMSO. TAFI of human origin can be obtained in a stock solution of 360 μg/ml from Enzyme Research Laboratory or over blood plasma. Activation of TAFI to TAFIa occurred with thrombin (2.7 U/ml), the activation of which was produced with 30 μg of thrombomodulin. Excessive thrombin activity was eliminated by adding the synthetic inhibitor NAPAP. The measurement was performed on microtiter plates.
The absorption increase at 405-412 nm was recorded for 10 minutes.
in buffer (20 mM HEPES, 5 mM CaCl2, 0.01% Tween 80; pH 7.4) • incubate for 5 min at 25° C.
(§1) • measure for 10 min at RT Results: • Splitting of thiaarginine and thialysine substrates (final concentration 174 μM) by TAFIa (final concentration 17 μg/ml) • in brackets the value for carboxypeptidase B • Substances of comparison A and B from Bull. Korean. Chem. Soc. 1998, 19(2), 189-193
(§2) ΔE=Extinction variation at 405 nm

carboxypeptidase B = target: T2, carboxypeptidase B (Homo sapiens, UniProt P15086); assay: Splitting of thiaarginine and thialysine substrates by carboxypeptidase B; type: biochemical; conditions: substrate final concentration 174 μM
T2 sequence (P15086 111-417): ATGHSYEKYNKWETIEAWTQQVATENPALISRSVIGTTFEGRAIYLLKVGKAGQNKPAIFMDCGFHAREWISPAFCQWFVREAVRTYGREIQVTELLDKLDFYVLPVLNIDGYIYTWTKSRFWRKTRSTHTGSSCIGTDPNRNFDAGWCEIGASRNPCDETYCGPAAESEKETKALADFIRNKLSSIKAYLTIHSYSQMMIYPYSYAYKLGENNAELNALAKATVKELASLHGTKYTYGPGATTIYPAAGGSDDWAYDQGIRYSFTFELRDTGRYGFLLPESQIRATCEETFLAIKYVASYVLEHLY
Protocol: The thiaarginine derivatives of the following formulas A and B [drawing 2] have been described as substrates for carboxypeptidase B (Bull. Korean. Chem. Soc. 1998, 19(2), 189-193). […] Detection of CPB by means of compound A is carried out according to the following FIG. 1. [drawing]
as §1, §2

Compound | ΔE/min (extinction variation at 405 nm), splitting by TAFIa (TAFIa) | ΔE/min (extinction variation at 405 nm), value in brackets for carboxypeptidase B (carboxypeptidase B)
Cl.NC(N)=NCCSC(NC(=O)[C@H](CCCCNC(=O)OCc1ccccc1)NC(=O)c1ccccc1)C(=O)O (stereo partly drawn) [No. 4269, benzoyl-(L)-lysyl-(E-benzyloxycarbonyl)-α-(D, L)-(2-guanidinoethylthio)-glycine hydrochloride salt] | 0.108 | (0.018)
Boc-F-K(Boc)-G(GUS)-OH × HCl [No. 4298] | 0.043 | (0.034)
Boc-K(Tos)-G(GUS)-OH × HCl [No. 4273] | 0.014 | (0.048)
Boc-K(Z)-G(GUS)-OH × TFA [No. 4275] | 0.041 | (0.028)
Bz-P-K(Boc)-G(GUS)-OH × TFA [No. 4300] | 0.012 | (0.072)

Results, then the compound that gave them:

ΔE/min (extinction variation at 405 nm), splitting by TAFIa (TAFIa) | ΔE/min (extinction variation at 405 nm), value in brackets for carboxypeptidase B (carboxypeptidase B) | Compound
0.055 |  | NCCCSC(NC(=O)[C@H](CCCCNC(=O)OCc1ccccc1)NC(=O)c1ccccc1)C(=O)O.O=C(O)C(F)(F)F (stereo partly drawn) [No. 4339, benzoyl-(L)-lysyl-(F-benzyloxycarbonyl)-α-(D,L)-(3-aminopropylthio)-glycine trifluoracetic acid salt]
0.054 |  | Boc-K(Z)-G(α-SPrA)-OH × TFA [No. 4341]
0.034 |  | Bz-V-G(GUS)-OH × TFA [No. 4334]
0.053 |  | Bz-V-G(α-SPrA)-OH × TFA [No. 4336]
0.042 | (0.059) | Z-A-K(Boc)-G(GUS)-OH × HCl [No. 4302]
